According to ChEMBL document CHEMBL5726667, “Substituted pyrrolo[2,3-b]pyrazines and substituted pyrazolo[3,4-b]pyridines as ITK and JAK kinase inhibitors” (2017):

Columns and labels:
[1] = molecular target: T1, Tyrosine-protein kinase ITK/TSK (Homo sapiens, UniProt Q08881); assay: In Vitro Inhibition Assay: ITK and JAK3 Kinase assay procedures:Enzyme was incubated with substrate peptide in reaction buffer in the presence and absence of test compounds or Staurosporine. All additions were done on ice, followed by the addition of ATP mix. Wells were uniformly mixed using an Eppendorff plate shaker and incubated at 30° C. for 20 min, and stopped by the addition of 5 μL of 3% …
T1 sequence (Q08881 whole entry): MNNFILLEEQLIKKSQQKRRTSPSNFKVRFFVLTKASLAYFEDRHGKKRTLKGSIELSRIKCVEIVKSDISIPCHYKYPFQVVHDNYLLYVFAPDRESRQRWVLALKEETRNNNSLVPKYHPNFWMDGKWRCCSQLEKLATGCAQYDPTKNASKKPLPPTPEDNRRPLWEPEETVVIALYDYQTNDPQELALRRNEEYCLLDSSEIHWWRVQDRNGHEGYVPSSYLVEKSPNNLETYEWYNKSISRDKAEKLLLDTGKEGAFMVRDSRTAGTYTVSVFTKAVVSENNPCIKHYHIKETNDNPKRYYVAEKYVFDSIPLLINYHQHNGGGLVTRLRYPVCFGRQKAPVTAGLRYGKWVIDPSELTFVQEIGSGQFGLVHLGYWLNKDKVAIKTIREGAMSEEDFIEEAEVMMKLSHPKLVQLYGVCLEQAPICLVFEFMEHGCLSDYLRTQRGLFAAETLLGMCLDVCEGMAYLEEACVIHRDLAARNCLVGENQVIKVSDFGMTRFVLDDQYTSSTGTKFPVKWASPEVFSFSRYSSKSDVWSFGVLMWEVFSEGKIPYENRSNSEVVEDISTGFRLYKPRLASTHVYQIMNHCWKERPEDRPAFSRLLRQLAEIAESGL
Description: (§1) All additions were done on ice, followed by the addition of ATP mix. Wells were uniformly mixed using an Eppendorff plate shaker and incubated at 30° C. for 20 min, and stopped by the addition of 5 μL of 3% phosphoric acid. Volume was increased to 100 μL by adding 0.8% phosphoric acid which was then transferred to PC filter mats (Millipore), pre-equilibrated with 70% ethanol and water. Plates were washed thrice with 100 μL 0.8% phosphoric acid and dried for an hour at 60° C. 100 μL scintillation fluid was added into each well and reading taken in Perkin Elmer TOPCOUNT beta counter.

[2] = molecular target: T2, Tyrosine-protein kinase JAK3 (Homo sapiens, UniProt P52333); assay: as above
T2 sequence (P52333 whole entry): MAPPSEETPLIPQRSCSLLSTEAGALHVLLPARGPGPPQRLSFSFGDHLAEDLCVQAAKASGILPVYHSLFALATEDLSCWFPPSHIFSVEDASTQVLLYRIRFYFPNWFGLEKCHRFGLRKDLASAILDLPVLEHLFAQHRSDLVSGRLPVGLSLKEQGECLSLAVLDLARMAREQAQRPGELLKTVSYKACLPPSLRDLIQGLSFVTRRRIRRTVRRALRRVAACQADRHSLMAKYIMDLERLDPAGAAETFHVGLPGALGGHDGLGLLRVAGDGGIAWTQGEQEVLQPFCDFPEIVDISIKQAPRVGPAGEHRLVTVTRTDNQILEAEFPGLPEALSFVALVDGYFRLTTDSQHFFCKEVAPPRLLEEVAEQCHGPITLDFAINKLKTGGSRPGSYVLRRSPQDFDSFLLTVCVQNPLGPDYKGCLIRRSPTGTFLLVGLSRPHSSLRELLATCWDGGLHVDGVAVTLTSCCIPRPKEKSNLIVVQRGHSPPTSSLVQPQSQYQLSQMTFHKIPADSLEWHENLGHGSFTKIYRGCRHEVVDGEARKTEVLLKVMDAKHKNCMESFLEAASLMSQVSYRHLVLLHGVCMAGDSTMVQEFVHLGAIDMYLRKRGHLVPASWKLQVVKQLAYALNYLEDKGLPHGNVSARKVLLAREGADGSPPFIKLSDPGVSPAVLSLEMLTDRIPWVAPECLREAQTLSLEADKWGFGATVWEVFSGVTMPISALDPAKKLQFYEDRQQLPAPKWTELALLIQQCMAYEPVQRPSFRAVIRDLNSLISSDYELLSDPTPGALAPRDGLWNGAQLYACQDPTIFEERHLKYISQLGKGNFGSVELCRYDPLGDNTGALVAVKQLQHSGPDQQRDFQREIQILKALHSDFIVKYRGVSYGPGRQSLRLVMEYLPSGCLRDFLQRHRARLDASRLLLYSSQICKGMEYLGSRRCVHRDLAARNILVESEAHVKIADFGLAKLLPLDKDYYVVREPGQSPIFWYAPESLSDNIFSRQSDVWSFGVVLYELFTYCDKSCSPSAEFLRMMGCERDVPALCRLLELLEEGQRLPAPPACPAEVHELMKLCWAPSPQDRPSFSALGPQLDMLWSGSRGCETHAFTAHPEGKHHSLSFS
Description: as §1

| SMILES | IC50 [1] [nM] | IC50 [2] [nM] |
| --- | --- | --- |
| C=CC(=O)Nc1cccc(-c2cnc3c(c2)CC(=O)N3)c1 | > 100 | > 100 |
| CC/C=C/C(=O)Nc1cccc(-c2cnc3[nH]nc(C)c3c2)c1 | > 100 | > 100 |
| Cc1c[nH]c2ncc(-c3cccc(NC(=O)/C=C/N(C)C)c3)cc12 | > 1000 | > 1000 |
| C=CC(=O)Nc1cccc(-c2cnc3[nH]cc(-c4cc5ccc(Cl)cc5[nH]4)c3n2)c1 | > 100 | > 100 |
| CC/C=C/C(=O)Nc1cccc(-c2cnc3[nH]cc(C)c3c2)c1 | > 1000 | > 1000 |
| C=CC(=O)Nc1cccc(-c2cnc3[nH]cc(-c4cc(F)cc(F)c4OC)c3n2)c1 | > 100 | > 100 |
| C=CC(=O)Nc1cccc(-c2cnc3[nH]ccc3n2)c1 | > 1000 | > 1000 |
| COc1c(F)cc(F)cc1-c1c[nH]c2ncc(-c3cc(NC(=O)/C(C)=C/C(C)(C)C)ccc3F)cc12 | < 100 | < 100 |

Results, then the compound that gave them:

| IC50 [1] [nM] | IC50 [2] [nM] | SMILES |
| --- | --- | --- |
| > 1000 | > 1000 | C=CC(=O)Nc1cccc(-c2cnc3[nH]ccc3c2)c1 |
| > 100 | > 100 | CC/C=C/C(=O)Nc1cc(-c2cnc3[nH]cc(C)c3c2)ccc1Cl |
| > 1000 | > 1000 | Cc1c[nH]c2ncc(-c3ccc(Cl)c(NC(=O)/C=C/N(C)C)c3)cc12 |
| > 1000 | > 1000 | Cc1c[nH]c2ncc(Nc3cccc(CC#N)c3)cc12 |
